How the values were obtained:
Alpha-galactosidase A = target: T1, Alpha-galactosidase A (Rattus norvegicus, UniProt D3ZJF9); test: Inhibitory activity against alpha-galactosidase from rat epididymis.
T1 sequence (D3ZJF9 whole entry): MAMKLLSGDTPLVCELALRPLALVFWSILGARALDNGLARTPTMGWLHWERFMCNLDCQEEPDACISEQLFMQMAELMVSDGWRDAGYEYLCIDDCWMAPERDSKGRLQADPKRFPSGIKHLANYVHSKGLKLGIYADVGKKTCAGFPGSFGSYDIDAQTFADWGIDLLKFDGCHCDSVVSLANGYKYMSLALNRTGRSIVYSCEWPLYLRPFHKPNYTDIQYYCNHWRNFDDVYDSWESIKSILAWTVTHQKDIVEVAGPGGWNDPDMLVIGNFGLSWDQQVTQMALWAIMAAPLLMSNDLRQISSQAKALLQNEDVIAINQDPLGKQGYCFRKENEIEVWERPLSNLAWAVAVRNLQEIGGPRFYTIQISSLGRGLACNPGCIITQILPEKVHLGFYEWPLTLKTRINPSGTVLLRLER

Beta-galactosidase = target: T2, Beta-galactosidase (Bos taurus, UniProt Q58D55); test: Inhibitory activity against beta-galactosidase from bovine liver
T2 sequence (Q58D55 whole entry): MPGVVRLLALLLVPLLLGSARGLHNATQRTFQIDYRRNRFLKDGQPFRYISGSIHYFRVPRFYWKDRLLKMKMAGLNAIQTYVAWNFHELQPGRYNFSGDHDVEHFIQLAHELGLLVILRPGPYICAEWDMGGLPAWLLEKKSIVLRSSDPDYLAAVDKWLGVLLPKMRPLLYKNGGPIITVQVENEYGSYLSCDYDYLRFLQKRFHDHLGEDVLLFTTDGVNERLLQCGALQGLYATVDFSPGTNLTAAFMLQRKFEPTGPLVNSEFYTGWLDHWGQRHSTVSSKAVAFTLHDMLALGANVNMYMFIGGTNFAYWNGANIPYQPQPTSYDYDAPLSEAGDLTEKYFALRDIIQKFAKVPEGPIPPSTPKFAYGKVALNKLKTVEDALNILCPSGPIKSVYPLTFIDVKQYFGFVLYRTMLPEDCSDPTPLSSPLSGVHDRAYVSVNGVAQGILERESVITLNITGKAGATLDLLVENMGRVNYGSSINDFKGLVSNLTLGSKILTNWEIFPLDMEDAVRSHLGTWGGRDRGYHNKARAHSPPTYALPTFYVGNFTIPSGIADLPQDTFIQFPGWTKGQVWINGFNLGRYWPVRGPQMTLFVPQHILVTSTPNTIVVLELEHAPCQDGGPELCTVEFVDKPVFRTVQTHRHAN

| SMILES | IC50 (Alpha-galactosidase A) | IC50 (Beta-galactosidase) |
| --- | --- | --- |
| OCC1NC(CO)[C@H](O)[C@@H](O)[C@@H]1O (stereo partly drawn) | 4.5 µM | – |
| OC[C@H]1N[C@H](CO)[C@@H](O)[C@@H](O)C1O (single isomer, unassigned) | 67 µM | 160 µM |

Reference: ChEMBL document CHEMBL1131876, “Revised structure of a homonojirimycin isomer from Aglaonema treubii: first example of a naturally occurring alpha-homoallonojirimycin” (Bioorg Med Chem Lett, 1999)
